Assays:
[1] = Dissociation constant, pKa of the compound; type: physicochemical
[2] = biological target: T1, Glycogen phosphorylase, muscle form (Oryctolagus cuniculus, UniProt P00489); assay: Inhibition of rabbit muscle glycogen phosphorylase inactive form b
T1 sequence (P00489 whole entry): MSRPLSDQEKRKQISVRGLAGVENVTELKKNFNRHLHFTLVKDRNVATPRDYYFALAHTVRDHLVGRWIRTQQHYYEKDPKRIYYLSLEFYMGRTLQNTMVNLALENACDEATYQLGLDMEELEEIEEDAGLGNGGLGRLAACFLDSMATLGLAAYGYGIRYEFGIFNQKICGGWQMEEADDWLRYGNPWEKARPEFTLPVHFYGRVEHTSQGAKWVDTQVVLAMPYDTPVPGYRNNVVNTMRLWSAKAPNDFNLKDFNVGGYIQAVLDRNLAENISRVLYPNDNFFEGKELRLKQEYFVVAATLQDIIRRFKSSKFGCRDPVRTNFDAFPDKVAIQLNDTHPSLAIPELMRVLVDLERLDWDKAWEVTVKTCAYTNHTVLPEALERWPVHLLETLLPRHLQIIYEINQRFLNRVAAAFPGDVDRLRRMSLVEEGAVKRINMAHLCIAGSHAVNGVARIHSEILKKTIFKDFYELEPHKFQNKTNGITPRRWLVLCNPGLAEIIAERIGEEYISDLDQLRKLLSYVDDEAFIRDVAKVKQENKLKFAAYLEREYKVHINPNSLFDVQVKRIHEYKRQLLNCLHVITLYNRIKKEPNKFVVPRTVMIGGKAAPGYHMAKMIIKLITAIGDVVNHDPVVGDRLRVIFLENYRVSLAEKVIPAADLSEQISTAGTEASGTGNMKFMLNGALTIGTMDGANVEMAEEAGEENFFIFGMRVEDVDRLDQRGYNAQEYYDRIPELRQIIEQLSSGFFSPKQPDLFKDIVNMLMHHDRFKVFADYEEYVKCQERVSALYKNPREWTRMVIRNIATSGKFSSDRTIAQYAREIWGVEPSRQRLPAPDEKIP

| pKa [1] | Ki [2] | SMILES |
| --- | --- | --- |
| 7.5 | – | O=c1[nH]c(=O)n([C@@H]2O[C@H](CO)C(O)[C@H](F)C2O)cc1F (stereo partly drawn) |
| – | 6.1 µM | O=c1ccn([C@@H]2O[C@H](CO)[C@@H](O)[C@H](O)[C@H]2O)c(=O)[nH]1 |
| – | 7.7 µM | Nc1ccn([C@@H]2O[C@H](CO)[C@@H](O)[C@H](O)[C@H]2O)c(=O)n1 |
